Experimental data taken from PMC10141580, “Cyclic Dichalcogenides Extend the Reach of Bioreductive Prodrugs to Harness Thiol/Disulfide Oxidoreductases: Applications to seco-Duocarmycins Targeting the Thioredoxin System” (ACS Central Science, 2023).
Values joined by “and” are separate entries in the source; they are usually repeats but may differ in a detail not shown here. Identical values can stand only once. Like-named read-outs stand apart in the source and are kept apart here.

System: panel of 140 standard cancer cell lines
Test: ProliFiler-140 cancer cell line screen (CellTiterGlo, 72 h)
Type: cell-based
Method: Incubations were performed for 72 h before automated viability readout with CellTiterGlo (Figure 8).
End of Figure S11 (part 5 of 5): ProliFiler-140 cancer cell line screening for cytotoxicity of the prodrugs.
8-data-point dose response curves from CellTiter-Glo® viability readout.
ProliFiler-140 cell line panel part V

For `COc1cc2cc(C(=O)N3C[C@@H](CCl)c4c3cc(OC(=O)N3CCN(C(=O)CCC(=O)N5CCN(C)CC5)[C@H]5CSSC[C@H]53)c3ccccc43)[nH]c2c(OC)c1OC` [P-SS66C-CBI-TMI], the “Reductive Activation Index” value (786-O (Kidney)) was 4.12, the “Reductive Activation Index” value (A172 (Brain)) was 5.35 and the “Reductive Activation Index” value (A375 (Skin)) was 3.01. The “Reductive Activation Index” value (A427 (Lung)) was 19 and 18.60, the “Reductive Activation Index” value (A498 (Kidney)) was 3.19 and the “Reductive Activation Index” value (A549 (Lung)) was 25. The “Reductive Activation Index” value (AsPC-1 (Pancreas)) was 8.2, the “Reductive Activation Index” value (BEN (Lung)) was 27 and the “Reductive Activation Index” value (BT-20 (Breast)) was 9.1. The IC50 (COV434, read-out: IC50 [M] (ProliFiler-140), COV434 (Ovary)) was 1.5e-08 M, the “Reductive Activation Index” value (Caki-1 (Kidney)) was 5.18 and the “Reductive Activation Index” value (Caki-2 (Kidney)) was 5.62 and 5.6. For the same compound, the “Reductive Activation Index” value (Calu-6 (Lung)) was 5.77, the “Reductive Activation Index” value (Colo 205 (Colon)) was 8.8 and the “Reductive Activation Index” value (DLD-1 (Colon)) was 6.33 and 6.3. The “Reductive Activation Index” value (EFM-19 (Breast)) was 3.1 and 3.08, the “Reductive Activation Index” value (EFM-192A (Breast)) was 6.6 and the IC50 (EFM-192A, read-out: IC50 [M] (ProliFiler-140), EFM-192A (Breast)) was 2.7e-07 M. For the same compound, the “Reductive Activation Index” value (EFO-27 (Ovary)) was 15, the “Reductive Activation Index” value (H4 (Brain)) was 5.82 and the “Reductive Activation Index” value (H460 (Lung)) was 9.3. For the same compound, the “Reductive Activation Index” value (HCC202 (Breast)) was 9.8, the IC50 (HCC202, read-out: IC50 [M] (ProliFiler-140), HCC202 (Breast)) was 9.1e-08 M and the “Reductive Activation Index” value (HCC827 (Lung)) was 15. For the same compound, the “Reductive Activation Index” value (HCC 1569 (Breast)) was 28, the “Reductive Activation Index” value (HCT-15 (Colon)) was 3.89 and the “Reductive Activation Index” value (HEC-1-A (Endometrium)) was 18. The “Reductive Activation Index” value (HEC-1-B (Endometrium)) was 8.3, the “Reductive Activation Index” value (HT-29 (Colon)) was 9.5 and the “Reductive Activation Index” value (HeLa (Ovary)) was 23.88. The “Reductive Activation Index” value (Hep3B2.1-7 (Liver)) was 7.8, the IC50 (Homo sapiens, 786-0, read-out: IC50 [M] (ProliFiler-140), 786-O (Kidney)) was 2.86e-08 M and the IC50 (Homo sapiens, A 172, read-out: IC50 [M] (ProliFiler-140), A172 (Brain)) was 1.07e-07 M. The IC50 (Homo sapiens, A498, read-out: IC50 [M] (ProliFiler-140), A498 (Kidney)) was 9.41e-08 M, the IC50 (Homo sapiens, A549, read-out: IC50 [M] (ProliFiler-140), A549 (Lung)) was 3e-08 M and the IC50 (Homo sapiens, A2058, read-out: IC50 [M] (ProliFiler-140), A2058 (Skin)) was 1.1e-08 M. For the same compound, the IC50 (Homo sapiens, A2780, read-out: IC50 [M] (ProliFiler-140), A2780 (Ovary)) was 8.1e-09 M, the IC50 (Homo sapiens, A-375, read-out: IC50 [M] (ProliFiler-140), A375 (Skin)) was 5.45e-08 M and the IC50 (Homo sapiens, A-427, read-out: IC50 [M] (ProliFiler-140), A427 (Lung)) was 4.4e-08 M. The IC50 (Homo sapiens, A-431, read-out: IC50 [M] (ProliFiler-140), A431 (Skin)) was 2.02e-08 M, the IC50 (Homo sapiens, ASPC1, read-out: IC50 [M] (ProliFiler-140), AsPC-1 (Pancreas)) was 2.6e-07 M and the IC50 (Homo sapiens, BT-20, read-out: IC50 [M] (ProliFiler-140), BT-20 (Breast)) was 1.2e-07 M. The IC50 (Homo sapiens, BXPC-3, read-out: IC50 [M] (ProliFiler-140), BxPC-3 (Pancreas)) was 4.64e-08 M, the IC50 (Homo sapiens, CAKI-1, Caki-1) was 6.3e-08 M and the IC50 (Homo sapiens, CAKI-1, read-out: IC50 [M] (ProliFiler-140), Caki-1 (Kidney)) was 6.34e-08 M. The IC50 (Homo sapiens, CAKI-2, read-out: IC50 [M] (ProliFiler-140), Caki-2 (Kidney)) was 2.69e-07 M, the IC50 (Homo sapiens, COLO 205, Colo 205) was 8.6e-08 M and the IC50 (Homo sapiens, COLO 205, read-out: IC50 [M] (ProliFiler-140), Colo 205 (Colon)) was 8.6e-08 M. The IC50 (Homo sapiens, COR-L279, read-out: IC50 [M] (ProliFiler-140), COR-L279 (Lung)) was 7.2e-09 M, the IC50 (Homo sapiens, Calu-6, read-out: IC50 [M] (ProliFiler-140), Calu-6 (Lung)) was 5.93e-08 M and the IC50 (Homo sapiens, DLD-1, read-out: IC50 [M] (ProliFiler-140), DLD-1 (Colon)) was 1.25e-07 M. The IC50 (Homo sapiens, DU-145, read-out: IC50 [M] (ProliFiler-140), DU-145 (Prostate)) was 1.6e-08 M, the IC50 (Homo sapiens, DV-90, read-out: IC50 [M] (ProliFiler-140), DV90 (Lung)) was 1.2e-08 M and the IC50 (Homo sapiens, Detroit 562, read-out: IC50 [M] (ProliFiler-140), Detroit562 (Head/Neck)) was 1.88e-08 M. It also gave an IC50 (Homo sapiens, EFM-19, read-out: IC50 [M] (ProliFiler-140), EFM-19 (Breast)) of 3.1e-07 M, an IC50 (Homo sapiens, EFO-27, read-out: IC50 [M] (ProliFiler-140), EFO-27 (Ovary)) of 6.2e-08 M and an IC50 (Homo sapiens, EPLC-272H, read-out: IC50 [M] (ProliFiler-140), EPLC-272H (Lung)) of 4.57e-08 M. It also gave an IC50 (Homo sapiens, HCC38, read-out: IC50 [M] (ProliFiler-140), HCC38 (Breast)) of 1.35e-08 M, an IC50 (Homo sapiens, HCC827, read-out: IC50 [M] (ProliFiler-140), HCC827 (Lung)) of 9.1e-08 M and an IC50 (Homo sapiens, HCC1569, read-out: IC50 [M] (ProliFiler-140), HCC 1569 (Breast)) of 3.6e-08 M. For the same compound, the IC50 (Homo sapiens, HCT-15, HCT-15) was 1.4e-07 M, the IC50 (Homo sapiens, HCT-15, read-out: IC50 [M] (ProliFiler-140), HCT-15 (Colon)) was 1.4e-07 M and the IC50 (Homo sapiens, HCT-116, HCT116) was 3.2e-08 M. It also gave an IC50 (Homo sapiens, HCT-116, read-out: IC50 [M] (ProliFiler-140), HCT116 (Colon)) of 3.23e-08 M, an IC50 (Homo sapiens, HEC-1-A, read-out: IC50 [M] (ProliFiler-140), HEC-1-A (Endometrium)) of 1e-07 M and an IC50 (Homo sapiens, HEC-1B, read-out: IC50 [M] (ProliFiler-140), HEC-1-B (Endometrium)) of 4e-07 M. For the same compound, the IC50 (Homo sapiens, HL-60, HL-60) was 1.5e-08 M, the IC50 (Homo sapiens, HL-60, read-out: IC50 [M] (ProliFiler-140), HL-60 (Blood)) was 1.5e-08 M and the IC50 (Homo sapiens, HT-29, HT-29) was 1.1e-07 M. It also gave an IC50 (Homo sapiens, HT-29, read-out: IC50 [M] (ProliFiler-140), HT-29 (Colon)) of 1.1e-07 M, an IC50 (Homo sapiens, HT-1080, read-out: IC50 [M] (ProliFiler-140), HT-1080 (Fibrosarcoma)) of 2.13e-08 M and an IC50 (Homo sapiens, HeLa, read-out: IC50 [M] (ProliFiler-140), HeLa (Ovary)) of 9.89e-09 M. It also gave an IC50 (Homo sapiens, Hs746T, read-out: IC50 [M] (ProliFiler-140), Hs 746T (Stomach)) of 7.5e-08 M, an IC50 (Homo sapiens, HuTu80, read-out: IC50 [M] (ProliFiler-140), Hutu 80 (Duodenum)) of 9.56e-09 M and an IC50 (Homo sapiens, Huh-7, read-out: IC50 [M] (ProliFiler-140), HuH7 (Liver)) of 1e-07 M. For the same compound, the IC50 (Homo sapiens, Ishikawa, read-out: IC50 [M] (ProliFiler-140), Ishikawa (Endometrium)) was 3.8e-09 M, the IC50 (Homo sapiens, JIMT-1, read-out: IC50 [M] (ProliFiler-140), JIMT-1 (Breast)) was 1e-07 M and the IC50 (Homo sapiens, JVM-3, read-out: IC50 [M] (ProliFiler-140), JVM-3 (Blood)) was 3.36e-09 M. The IC50 (Homo sapiens, Jurkat, read-out: IC50 [M] (ProliFiler-140), Jurkat (Blood)) was 6.17e-09 M, the IC50 (Homo sapiens, K562, read-out: IC50 [M] (ProliFiler-140), K562 (Blood)) was 1.3e-07 M and the IC50 (Homo sapiens, KARPAS-299, KARPAS 299 (Blood), read-out: IC50 [M] (ProliFiler-140)) was 1.08e-07 M. It also gave an IC50 (Homo sapiens, KATO III, read-out: IC50 [M] (ProliFiler-140), Kato III (Stomach)) of 2.2e-07 M.
